The values below come from patent US5001121A, “Cephalosporin compounds and pharmaceutical compositions thereof” (Mochida Pharmaceutical Co., Ltd., priority 1985, dated 1991).

One data set has as its system Escherichia coli 67. The data set can be described thus: Antibacterial activity in vitro, agar plate dilution method (MIC). The class given is cell-based. Conditions: Mueller Hinton agar, 10^6 cells/ml, 37° C., 20 hours. The protocol: (§1) Antibacterial activity in vitro was determined in accordance with the agar plate dilution method. A platinum loop each of test bacteria (10^6 cells/ml), cultured in Mueller Hinton broth, was inoculated on Mueller Hinton agar plates which contained test compounds at various concentrations. After cultivating at 37° C. for 20 hours, the minimum inhibitory concentration (MIC μg/ml) was determined.

For data set [1], the system named is Klebsiella pneumoniae IFO3317. Described as above. The format is cell-based. The following applies: Mueller Hinton agar, 10^6 cells/ml, 37° C., 20 hours. How it is done: as §1
Data set [2] deals with Pseudomonas aeruginosa IFO3445. The data set is described as above. The class given is cell-based. The following applies: Mueller Hinton agar, 10^6 cells/ml, 37° C., 20 hours. How it is done: as §1
The test system of data set [3] is Serratia marcescens IFO3759. The data set is described as above. The class given is cell-based. Conditions: Mueller Hinton agar, 10^6 cells/ml, 37° C., 20 hours. The protocol: as §1
Data set [4] relates to Staphylococcus aureus Smith. Described as above. The class given is cell-based. Conditions: Mueller Hinton agar, 10^6 cells/ml, 37° C., 20 hours. How it is done:
as §1

The next data set in a line: LD50, Probit method. The following applies: in vivo, iv. The protocol: Next, LD50 of representative examples of the compounds of the present invention is shown in Table 3 wherein LD50 was determined in accordance with the Probit method.
Another data set deals with Serratia marcescens 274. The data set is described as follows: Protection ability against systemic infection. Conditions: in Mus musculus, iv, 168 h, Table 2-b, i.p. infection, i.v. compound 1 hour later, survival at 1 week, read-out: ED50. The class given is in vivo, ICR mice. How it is done:
Protection ability against systemic infection was determined as follows. An aqueous suspension of test bacteria was intraperitoneally injected into 10 four week old ICR mice. One hour after the infection, test compounds were intravenously administered. The number of surviving mice was counted 1 week after injection to determine the dose at which 50% of the test animals were alive (ED50 :mg/kg).

The term MIC denotes the lowest concentration that inhibits growth of the organism. A low value points to inhibition by little substance. In general, LD50 refers to the dose expected to kill half of the subjects tested. A lower LD50 goes with a more toxic substance. In general, ED50 refers to the dose at which the effect has come halfway, by size or by number of responders.

Values after ≈ are worked out from the molar mass of the structure shown.

Take `Nc1nc(/C(=N/O[C@H](C(=O)O)c2ccc(O)c(O)c2)C(=O)N[C@@H]2C(=O)N3C(C(=O)[O-])=C(C[n+]4ccccc4)CS[C@H]23)cs1` [Compound 15, (6R,7R)-7-[2-(2-amino-4-thiazolyl)-2-[Z-[(S)-carboxy(3,4-dihydroxyphenyl)methyl]oxyimino]acetamido]-3-(pyridiniummethyl)-8-oxo-5-thia-1-azabicyclo[4.2.0]oct-2-ene-2-carboxylate]: the MIC was 0.1 µg/mL (≈ 0.16 µM) in the data set on Escherichia coli 67; less than 0.05 µg/mL in data set [1]; 0.39 µg/mL (≈ 0.622 µM) in data set [2]; 0.1 µg/mL (≈ 0.16 µM) in data set [3]; 0.78 µg/mL (≈ 1.24 µM) in data set [4]. In “LD50, Probit method”, the 50% lethal dose (LD50) is more than 1000 mg/kg.
Turning to `Cc1cc(SCC2=C(C(=O)O)N3C(=O)[C@@H](NC(=O)/C(=N\O[C@@H](C(=O)O)c4ccc(O)c(O)c4)c4csc(N)n4)[C@H]3SC2)n2nc(C(=O)O)nc2n1` [Compound 10, (6R,7R)-7-[2-(2-amino-4-thiazolyl)-2-[Z-[(R)-carboxy(3,4-dihydroxyphenyl)-methyl]oxyimino]acetamido]-3-[(2-carboxy-5-methyl-s-triazolo[1,5-a]pyrimidin-7-yl)thiomethyl]-8-oxo-5-thia-1-azabicyclo[4.2.0]oct-2-ene-2-carboxylic acid], the MIC in the data set on Escherichia coli 67 was 0.2 µg/mL (≈ 0.264 µM); in data set [1], less than 0.05 µg/mL; in data set [2] it was 6.25 µg/mL (≈ 8.25 µM); in data set [3], 0.1 µg/mL (≈ 0.132 µM); in data set [4] it was 0.78 µg/mL (≈ 1.03 µM). In the data set with Serratia marcescens 274, the ED50 was found to be 28.6 mg/kg.
As to `Cc1cc(SCC2=C(C(=O)O)N3C(=O)[C@@H](NC(=O)C(NC(=O)c4ccc(O)c(O)c4)c4csc(N)n4)[C@H]3SC2)n2nc(C(=O)O)nc2n1` (stereo partly drawn) [Compound 17, (6R,7R)-7-[2-(2-amino-4-thiazolyl)-2-(3,4-dihydroxybenzoylamino)acetamido]-3-[(2-carboxy-5-methyl-s-triazolo [1,5-a]pyrimidin-7-yl)thiomethyl]-8-oxo-5-thia-1-azabicyclo[4.2.0]oct-2-ene-2-carboxylic acid], the MIC against Escherichia coli 67 was less than 0.05 µg/mL; in data set [1] it was less than 0.05 µg/mL; in data set [2], 1.56 µg/mL (≈ 2.19 µM); in data set [3], less than 0.05 µg/mL; in data set [4] it was 3.13 µg/mL (≈ 4.39 µM).
Turning to `CC(=O)Oc1ccc([C@@H](O/N=C(\C(=O)N[C@@H]2C(=O)N3C(C(=O)O)=C(CSc4cc(C)nc5nc(C(=O)O)nn45)CS[C@H]23)c2csc(N)n2)C(=O)O)cc1OC(C)=O` [Compound 8, (6R,7R)-7-[2-(2-amino-4-thiazolyl)-2-[Z-[(R)-carboxy(3,4-diacetoxyphenyl)-methyl]oxyimino]acetamido]-3-[(2-carboxy-5-methyl-s-triazolo[l,5-a]pyrimidin-7-yl)thiomethyl]-8-oxo-5-thia-1-azabicyclo [4.2.0]oct-2-ene-2-carboxyl-acid], the MIC against Escherichia coli 67 was 0.2 µg/mL (≈ 0.238 µM); in data set [1], less than 0.05 µg/mL; in data set [2], 3.13 µg/mL (≈ 3.72 µM); in data set [3] it was 0.1 µg/mL (≈ 0.119 µM). Also, the ED50 in the data set on Serratia marcescens 274 stood at 10.5 mg/kg.
`Cc1cc(SCC2=C(C(=O)O)N3C(=O)[C@@H](NC(=O)/C(=N\OC(C)(C)C(=O)c4ccc(O)c(O)c4)c4csc(N)n4)[C@H]3SC2)n2nc(C(=O)O)nc2n1` [Compound 6, (6R,7R)-7-[2-(2-amino-4-thiazolyl)-2-[Z-[1-(3,4-dihydroxybenzoyl)-1-methylethyl]oxyimino]acetamido]-3-[(2-carboxy-5-methyl-s-triazolo-[1,5-a]pyrimidin-7-yl)thiomethyl]-8-oxo-5-thia-1-azabicyclo[4.2.0]oct-2-ene-2-carboxylicacid]: the MIC against Escherichia coli 67 was less than 0.05 µg/mL; in data set [1], less than 0.05 µg/mL; in data set [2], 0.78 µg/mL (≈ 1.01 µM); in data set [3] it was less than 0.05 µg/mL; in data set [4], 6.25 µg/mL (≈ 8.12 µM). The molecule further yielded a median lethal dose (LD50) in “LD50, Probit method” of more than 1000 mg/kg.
As to `CC(=O)Oc1ccc([C@H](O/N=C(\C(=O)N[C@@H]2C(=O)N3C(C(=O)O)=C(CSc4cc(C)nc5nc(C(=O)O)nn45)CS[C@H]23)c2csc(N)n2)C(=O)O)cc1OC(C)=O` [Compound 7, (6R,7R)-7-[2-(2-amino-4-thiazolyl)-2-[Z-[(S)-carboxy(3,4-diacetoxyphenyl)methyl]oxyimino]acetamido]-3-[(2-carboxy-5-methyl-s-triazolo-[1,5-a]pyrimidin-7-yl)thiomethyl]-8-oxo-5-thia-1-azabicyclo[4.2.0]oct-2-ene-2-carboxylic acid], the minimum inhibitory concentration (MIC) with Escherichia coli 67 was 0.2 µg/mL (≈ 0.238 µM); in data set [1] it was less than 0.05 µg/mL; in data set [2], 1.56 µg/mL (≈ 1.85 µM); in data set [3] it was 0.1 µg/mL (≈ 0.119 µM).
With `Cc1cc(SCC2=C(C(=O)O)N3C(=O)[C@@H](NC(=O)/C(=N\OC(=O)c4cc(O)c(O)c(O)c4)c4csc(N)n4)[C@H]3SC2)n2nc(C(=O)O)nc2n1` [Compound 1, (6R,7R)-7-[2-(2-amino-4-thiazolyl)-2-[Z-(3,4,5-trihydroxybenzoyl)oxyimino]acetamido]-3-[(2-carboxy-5-methyl-s-triazolo[l,5-a]-pyrimidin-7-yl)thiomethyl]-8-oxo-5-thia-l-azabicyclo [4.2.0]oct-2-ene-2-carboxylic acid], the minimal inhibitory concentration (MIC) against Escherichia coli 67 was less than 0.05 µg/mL; in data set [1], less than 0.05 µg/mL; in data set [2], 3.13 µg/mL (≈ 4.21 µM); in data set [3] it was less than 0.05 µg/mL; in data set [4], 0.78 µg/mL (≈ 1.05 µM). Also, the LD50 in the data set “LD50, Probit method” was more than 1000 mg/kg.
As to `Cc1cc(=O)n2nc(SCC3=C(C(=O)O)N4C(=O)[C@@H](NC(=O)/C(=N\OC(=O)c5cc(O)c(O)cc5C)c5csc(N)n5)[C@H]4SC3)sc2n1` [Compound 4], the MIC against Escherichia coli 67 is 0.78 µg/mL (≈ 1.07 µM); in data set [1], less than 0.05 µg/mL; in data set [2], 3.13 µg/mL (≈ 4.28 µM); in data set [3] it was less than 0.05 µg/mL; in data set [4], 0.39 µg/mL (≈ 0.534 µM). The LD50 in the data set “LD50, Probit method” was more than 1000 mg/kg.
On to `Nc1nc(/C(=N/OC(C(=O)O)c2ccc(O)c(O)c2)C(=O)N[C@@H]2C(=O)N3C(C(=O)[O-])=C(C[n+]4ccccc4)CS[C@H]23)cs1` (stereo partly drawn) [Compound 14, (6R,7R)-7-[2-(2-amino-4-thiazolyl)-2-[Z-[carboxy(3 4-dihydroxyphenyl)methyl]-oxyimino]acetamido]-3-(pyridiniummethyl)-8-oxo-5-thia-l-azabicyclo[4.2.0]oct-2-ene-2-carboxylate], for which the MIC stood at 0.39 µg/mL (≈ 0.622 µM) in the data set on Escherichia coli 67; 0.1 µg/mL (≈ 0.16 µM) in data set [1]; 1.56 µg/mL (≈ 2.49 µM) in data set [2]; 0.39 µg/mL (≈ 0.622 µM) in data set [3]; 0.78 µg/mL (≈ 1.24 µM) in data set [4].
In the case of `Cc1cc(SCC2=C(C(=O)O)N3C(=O)[C@@H](NC(=O)/C(=N\OC(C(=O)O)c4cc(O)c(O)c(O)c4)c4csc(N)n4)[C@H]3SC2)n2nc(C(=O)O)nc2n1` (stereo partly drawn) [Compound 12, (6R,7R)-7-[2-(2-amino-4-thiazolyl)-2-[Z-[carboxy(3,4,5-trihydroxyphenyl)-methyl]oxyimino]acetamido]-3-[(2-carboxy-5-methyl-s-triazolo[l,5-a]pyrimidin-7-yl)thiomethyl]-8-oxo-5-thia-l-azabicyclo [4 2.0]oct-2-ene-2-carboxylic acid], the minimum inhibitory concentration (MIC) in the data set on Escherichia coli 67 is 1.1 µg/mL (≈ 1.42 µM); in data set [1], less than 0.05 µg/mL; in data set [2] it was 6.25 µg/mL (≈ 8.08 µM); in data set [4] it was 0.78 µg/mL (≈ 1.01 µM).
As to `Cc1cc(SCC2=C(C(=O)O)N3C(=O)[C@@H](NC(=O)/C(=N\OC(C)(C(=O)O)c4ccc(O)c(O)c4)c4csc(N)n4)[C@H]3SC2)n2nc(C(=O)O)nc2n1` (stereo partly drawn) [Compound 11, (6R,7R)-7-[2-(2-amino-4-thiazolyl)-2-[Z-[1-carboxy-1-(3,4-dihydroxyphenyl)ethyl]oxyimino]acetamido]-3-[(2-carboxy-5-methyl-s-triazolo[1,5-a]pyrimidin-7-yl)thiomethyl]-8-oxo-5-thia-1-azabicyclo[4.2.0]oct-2-ene-2-carboxylic acid], the MIC was less than 0.05 µg/mL against Escherichia coli 67; less than 0.05 µg/mL in data set [1]; 0.78 µg/mL (≈ 1.01 µM) in data set [2]; 0.2 µg/mL (≈ 0.259 µM) in data set [3]; 0.78 µg/mL (≈ 1.01 µM) in data set [4].
`CC(=O)Oc1cc(C(=O)O)c(CO/N=C(\C(=O)N[C@@H]2C(=O)N3C(C(=O)O)=C(CSc4cc(C)nc5nc(C(=O)O)nn45)CS[C@H]23)c2csc(N)n2)cc1O` [Compound 5, (6R,7R)-7-[2-(2-amino-4-thiazolyl)-2-[Z-[(4-acetoxy-2-carboxy-5-hydroxyphenyl)-methyl]oxyimino]acetamido]-3-[(2-carboxy-5-methyl-s-triazolo-[1,5-a]pyrimidin-7-yl)thiomethyl]-8-oxo-5-thia-1-azabicyclo[4.2.0]oct-2-ene-2-carboxylic acid]: the MIC in the data set on Escherichia coli 67 was less than 0.05 µg/mL; in data set [1], less than 0.05 µg/mL; in data set [2], 0.2 µg/mL (≈ 0.25 µM); in data set [3] it was less than 0.05 µg/mL; in data set [4] it was 1.56 µg/mL (≈ 1.95 µM).
With `Nc1nc(/C(=N/O[C@H](C(=O)O)c2ccc(O)c(O)c2)C(=O)N[C@@H]2C(=O)N3C(C(=O)[O-])=C(C[n+]4cccc5c4CCC5)CS[C@H]23)cs1` [Compound 16, (6R,7R)-7-[2-(2-amino-4-thiazolyl)-2-[Z-[(S)-carboxy(3,4-dihydroxyphenyl)methyl]oxyimino]acetamido]-3-(2,3-cyclopentenopyridiniummethyl)-8-oxo-5-thia-1-azabicyclo [4.2.0]oct-2-ene-2-carboxylate], the minimum inhibitory concentration (MIC) against Escherichia coli 67 is 0.1 µg/mL (≈ 0.15 µM); in data set [1] it was less than 0.05 µg/mL; in data set [2], 0.39 µg/mL (≈ 0.585 µM); in data set [3], 0.1 µg/mL (≈ 0.15 µM); in data set [4] it was 0.78 µg/mL (≈ 1.17 µM). Also, the LD50 in “LD50, Probit method” was more than 1000 mg/kg.
